Test results taken from patent publication US20040029215A1, “Process for producing rfrp” (priority 2000, published 2004).
Ends that are not written are not given here.

Tested on: cAMP production
Experiment: activity of inhibiting the cAMP production (method of Example 1 of WO 00/29441)
Assay type: cell-based
Details: polypeptide obtained in Example 4, compared with the synthetic polypeptide of the same sequence
Procedure: The activity of inhibiting the cAMP production was determined for the polypeptide of the invention obtained in Example 4 (the polypeptide having the amino acid sequence of SEQ ID NO: 7) according to the method described in Example 1 of WO 00/29441.

Substance: polypeptide having the amino acid sequence of SEQ ID NO: 7: polypeptide of the invention consisting of 37 amino acid residues, excised from a recombinant RFRP-1/CS23 fusion protein by S-cyanation and ammonolysis (SLNFEELKDWGPKNVIKMSTPAVNKMPHSFANLPLRF; not fully specified (C-terminus))
- activity of inhibiting the cAMP production: has the activity as much as the synthetic polypeptide
